Target: Escherichia coli RtcB ligase (Escherichia coli, UniProt P46850)
Assay type: biochemical
Conditions: Mn2+; 3′-P / 5′-OH tRNA-mimic RNA substrate; estimated upper limit

Sequence of Escherichia coli RtcB ligase (P46850 whole entry): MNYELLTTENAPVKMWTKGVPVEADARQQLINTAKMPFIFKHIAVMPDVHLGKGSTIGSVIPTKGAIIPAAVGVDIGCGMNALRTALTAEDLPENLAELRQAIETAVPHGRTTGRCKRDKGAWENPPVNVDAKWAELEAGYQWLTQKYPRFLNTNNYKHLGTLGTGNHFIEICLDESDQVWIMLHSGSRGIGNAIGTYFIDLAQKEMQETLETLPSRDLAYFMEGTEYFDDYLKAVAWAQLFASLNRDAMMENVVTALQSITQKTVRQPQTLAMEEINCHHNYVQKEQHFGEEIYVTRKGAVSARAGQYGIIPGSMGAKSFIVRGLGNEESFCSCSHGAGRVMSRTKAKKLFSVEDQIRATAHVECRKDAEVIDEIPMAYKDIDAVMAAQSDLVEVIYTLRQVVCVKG

- Km: < 16 µM
SMILES: Nc1nc2c(ncn2[C@@H]2O[C@H](COP(=O)(O)OP(=O)(O)OP(=O)(O)O)[C@@H](O)[C@H]2O)c(=O)[nH]1 [GTP]
